Values joined by “and” are separate entries in the source; they are usually repeats but may differ in a detail not shown here. Equal values may be shown once. Marks after values point to notes of the source that are not given here. Blank lines part the entries; values can stand above or below the molecule they belong to.
What was measured:
[1] = substituent of phenyl group; estimated from the Table in Hogberg et al.; cited from earlier work
[2] = test system: GlcCer synthase of MDCK cell homogenates; test: Inhibition of ceramide glucosyltransferase (GlcCer synthase) of MDCK cell homogenates; format: biochemical, canine
Description: Assay of sphingolipid enzymes. The inhibitors were evaluated for their effectiveness against the GlcCer synthase of MDCK cell homogenates by incubation in a thermostatted ultrasonic bath (Radin N. S. et al., “Ultrasonic Baths as Substitutes for Shaking Incubator Baths,” Enzyme, 45:67-70 (1991)) with octanoyl sphingosine and uridinediphospho[^3H]glucose (Shukla, G. S. et al., “Glucosylceramide Synthase of Mouse Kidney: Further Characterization and Improved Assay Method,” Arch. Biochem. Biophys., 283:372-378 (1990)). The lipoidal substrate (85 μg) was added in liposomes made from 0.57 mg dioleoylphosphatidylcholine and 0.1 mg of Na sulfatide. Confluent cells were washed, then homogenized with a micro-tip sonicator at 0° C. for 3×30 sec; ˜0.2 mg of protein was used in each assay tube. In the case of the aromatic inhibitors, the test compound was simply evaporated to dryness from solution in the incubation tube. […] The aliphatic inhibitors, which appeared to be less soluble in water, were added as part of the substrate liposomes.

[3] = test system: MCF-7 breast carcinoma cells; test: Tumor cell growth in vitro (sulforhodamine B), MCF-7; format: cell-based, human; settings: rounded off to one digit, read-out: Inhibition of tumor cell growth in vitro, IC50
Description: (§1) Growth of cell lines. Comparisons of different inhibitors with regard to suppression of human cancer cell growth were made by the University of Michigan Cancer Center in vitro Drug Evaluation Core Laboratory. MCF-7 breast carcinoma cells, HT-29 colon adenocarcinoma cells, H-460 lung large cell carcinoma cells, and 9L brain gliosarcoma cells were grown in RPMI 1640 medium with 5% fetal bovine serum, 2 mM glutamine, 50 units/ml of penicillin, […] of streptomycin, and 0.1 mg/ml of neomycin. UMSCC-10A head and neck squamous carcinoma cells were grown in minimal essential medium with Earle salts and the same supplements. Medium components were from Sigma Chemical Co. Cells were plated in 96-well microtiter plates (1000 cells/well for H-460 and 9L cells, and 2000 cells/well for the other lines), and the test compounds were added 1 day later. The stock inhibitor solutions, 2 mM in 2 mM BSA, were diluted with different amounts of additional 2 mM BSA, then each solution was diluted 500-fold with growth medium to obtain the final concentrations indicated in the Figures and Tables.
(§2) Five days after plating the H-460 and 9L cells, or 6 days for the other lines, cell growth was evaluated by staining the adhering cells with sulforhodamine B and measuring the absorbance at 520 nm (Skehan, P. et al., “New Colorimetric Cytotoxicity Assay for Anticancer-Drug Screening,” J. Natl. Cancer Inst., 82:1107-1112 (1990)). The absorbance of the treated cultures is reported as percent of that of control cultures, to provide an estimate of the fraction of the cells that survived, or of inhibition of growth rate.

[4] = test system: H-460 lung large cell carcinoma cells; test: Tumor cell growth in vitro (sulforhodamine B), H-460; format: cell-based, human; settings: rounded off to one digit, read-out: Inhibition of tumor cell growth in vitro, IC50
Description: as §1, §2

[5] = test system: HT-29 colon adenocarcinoma cells; test: Tumor cell growth in vitro (sulforhodamine B), HT-29; format: cell-based, human; settings: rounded off to one digit, read-out: Inhibition of tumor cell growth in vitro, IC50
Description: as §1, §2

[6] = test system: 9L brain gliosarcoma cells; test: Tumor cell growth in vitro (sulforhodamine B), 9L; format: cell-based; settings: 9L; rounded off to one digit; read-out: Inhibition of tumor cell growth in vitro, IC50
Description: as §1, §2

[7] = target: T1, 1-O-acylceramide synthase (Canis lupus familiaris, UniProt Q6XPZ3); test: 1-O-acylceramide synthase (transacylase) assay; format: biochemical; settings: D-threo enantiomers, FIG. 12
T1 construct: the 1-O-acylceramide synthase assayed in the cellular homogenates; endogenous in cells; host or cells: cellular homogenates (MDCK, from context)
T1 sequence (Q6XPZ3 32-408): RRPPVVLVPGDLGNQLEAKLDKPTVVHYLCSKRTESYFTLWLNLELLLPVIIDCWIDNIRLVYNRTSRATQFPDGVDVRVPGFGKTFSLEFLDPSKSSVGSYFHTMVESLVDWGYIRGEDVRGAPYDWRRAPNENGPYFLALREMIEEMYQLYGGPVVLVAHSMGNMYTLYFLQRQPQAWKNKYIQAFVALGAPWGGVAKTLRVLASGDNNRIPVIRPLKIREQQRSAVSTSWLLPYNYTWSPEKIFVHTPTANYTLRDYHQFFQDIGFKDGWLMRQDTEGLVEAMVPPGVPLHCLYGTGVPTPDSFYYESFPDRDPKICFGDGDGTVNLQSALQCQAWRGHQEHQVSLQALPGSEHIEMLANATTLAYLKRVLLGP
Text: Distinguishing Between Inhibition of GlcCer Synthase and 1-O-acylceramide Synthase Inhibition. […] An alternative pathway for ceramide metabolism was subsequently identified, the acylation of ceramide at the 1-hydroxyl position, which was blocked by both threo and erythro diastereomers of PDMP. The specificities of D-threo-P4, D-threo-3′,4′-ethylenedioxy-P4, and D-threo-(4′-hydroxy)-P4 for GlcCer synthase were studied by assaying the transacylase.

MDCK cells [8] = test: GlcCer, ceramide and diradylglycerol content of treated MDCK cells (Specific Example 2); format: cell-based, canine; settings: for GlcCer lost from the cells (depletion): 11.3 nM inhibitor
Description: Cell culture and lipid extraction. One half million of MDCK cells were seeded into 10 cm style dish containing 8 ml serum free DMEM supplemented medium. Shayman, J. A. et al., J. Biol. Chem., 265:12135-12138 (1990). […] The GlcCer synthase inhibitors were added into the medium as a one to one complex with delipidated BSA. Abe, A. et al., J. Lipid. Res., 36:611-621 (1995); Abe, A. et al., Biochim. Biophys. Acta, 1299:331-341 (1996). The cells were incubated for 24 h or 48 h with the inhibitors. After the incubation, the cells were washed twice with 8 ml of cold PBS and fixed with 2 ml of cold methanol. The fixed cells were scraped and transferred to a glass tube. Another one ml of methanol was used to recover the remaining cells in the dish.
Three ml of chloroform was added to the tube and briefly sonicated using a water bath type sonicator. After centrifugation at 800 g for 5 min, the supernatant was transferred into another glass tube. The residues were reextracted with chloroform/methanol (1/1). After the centrifugation, the resultant supernatant was combined with the first one. The residues were air-dried and kept for protein analysis. Adding 0.9% NaCl to the supematant combined, the ratio of chloroform/methanol/aqueous was adjusted to 1/1/1. After centrifugation 800 g for 5 min, the upper layer was discarded. Methanol/water (1/1) with the same amount of volume of the lower layer was used to wash. The resultant lower layer was transferred into a small glass tube and dried down under a stream of nitrogen gas. A part of the lipid was used for lipid phosphate determination. Ames, B. N., Methods Enzymol., 8:115-118 (1966). The remainder was analyzed using HPTLC (Merck).
In order to determine whether inhibition of 1-O-acylceramide synthase was the basis for inhibitor mediated ceramide accumulation, the ceramide and diradylglycerol levels of MDCK cells treated D-threo-P4, D-threo-3′,4′-ethylenedioxy-P4, and D-threo-(4′-hydroxy)-P4 were measured (Table 9). MDCK cells (5×10^5) were seeded into a 10 cm dish and incubated for 24 h. Following the incubation, the cells were treated for 24 or 48 h with or without P4 or the phenyl substitute homologues. Both ceramide and diradylglycerol contents were determined by the method of Preis, J. et al., J. Biol. Chem., 261:8597-8600 (1986). GlcCer content was measured densitometrically by a video camera and use of NIH image 1.49. Significant increases in both ceramide and diradylglycerol occurred only in cells treated with inhibitor concentrations in excess of 1 mM. This was approximately 30-fold lower than the concentration required for inhibition of the 1-O-acylceramide synthase assayed in the cellular homogenates. […] Abe, A. et al., Biochim. Biophys. Acta, 1299:331-341 (1996).
(§3) Effects of D-threo-P4, D-threo4′-hydroxy-P4 and D-threo-3,4′-ethylenedioxy-P4 on GlcCer Synthesis and Cell Growth. To confirm the cellular specificity of D-threo-3′,4′-ethylenedioxy-P4 and D-threo-(4′-hydroxy)-P4 as compared to D-threo-P4, MDCK cells were treated with different concentrations of the inhibitors. The total protein amount in each sample was determined by the BCA method. In GlcCer analysis, lipid samples and standard lipids were applied to the same HPTLC plate pre-treated with borate and developed in a solvent consisting of C/M/W (63/24/4). The level of GlcCer was estimated from a standard curve obtained using a computerized image scanner. The values were normalized on the basis of the phospholipid content. The results are shown in FIG. 7, wherein each bar is the average values from three dishes, with error bars corresponding to one standard deviation. In the control, the total protein and GlcCer were 414±47.4 μg/dish and 24.3±1.97 ng/nmol phosphate, respectively.

MDCK cells [9] = test: Cell growth of treated MDCK cells, total protein (Specific Example 2); format: cell-based, canine
Description: Cell culture and lipid extraction. One half million of MDCK cells were seeded into 10 cm style dish containing 8 ml serum free DMEM supplemented medium. Shayman, J. A. et al., J. Biol. Chem., 265:12135-12138 (1990). After 24 h the medium was replaced with 8 ml of the medium containing 0, 11.8, 118 or 1180 nM D-t-P4, D-t-3′,4′-ethylenedioxy-P4 or D-4′-hydroxy)-P4. The GlcCer synthase inhibitors were added into the medium as a one to one complex with delipidated BSA. Abe, A. et al., J. Lipid. Res., 36:611-621 (1995); Abe, A. et al., Biochim. Biophys. Acta, 1299:331-341 (1996). The cells were incubated for 24 h or 48 h with the inhibitors. After the incubation, the cells were washed twice with 8 ml of cold PBS and fixed with 2 ml of cold methanol. The fixed cells were scraped and transferred to a glass tube. Another one ml of methanol was used to recover the remaining cells in the dish.
as §3

[10] = test system: three of the tumor cell lines; test: Growth tests of chemotherapeutic agents in the Drug Evaluation Core Laboratory; format: cell-based; settings: range over three of the tumor cell lines
Description: as §1, §2

Compound: CCCCCCCCCCCCCCCC(=O)N[C@H](CN1CCCC1)[C@H](O)c1ccc(Cl)cc1 [p-chloro-P4]
σ + π [1]: 0.94

IC50 [3]: 2 µM | IC50 [4]: 2 µM | IC50 [5]: 2 µM | IC50 [6]: 2 µM
Compound: CCCCCCCCCCCCCCCC(=O)NC(CN1CCCCC1)C(O)c1ccccc1 (mixture of isomers) [BML-115]
Inhibition at 5 μM ([2]; 5 μM inhibitor, triplicate ± SD, samples partly isomer mixtures): 12.4% | % Inhibition at 80 μM ([2]; 80 μM inhibitor, triplicate ± SD, samples partly isomer mixtures, 80 µM): 82 ± 0.3^b % and 84 ± 0.8^a % | improvement of activity relative to PPMP ([2]; calculated from inhibitions at 5 μM in Expt. f and relative purities): ~1.4 fold

activity in blocking 1-O-acylceramide synthase [7]: comparable activity
Compound: CCCCCCCCCCCCCCCC(=O)N[C@H](CN1CCCC1)[C@H](O)c1ccc2c(c1)OCCO2 [D-threo-3′,4′-ethylenedioxy-P4, D-t-3′,4′-ethylenedioxy-1-phenyl-2-palmitoylamino-3-pyrrolidino-1-propanol]
GlcCer lost from the cells (depletion) (MDCK cells [8]): ~78% | GlcCer lost from the cells (depletion) (MDCK cells [8]; listed as D-t-3′,4′-ethylenedioxy-P4): 80% | Ceramide (pmol/nmol phospholipids) (MDCK cells [8]; 113 nM, 24 h): 5.21 pmol/nmol phospholipids | level of ceramide versus untreated cells (MDCK cells [8]; 1130 nM): two times higher | total protein versus untreated cells (MDCK cells [9]; 1130 nM): significant decrease | total protein content versus untreated cells (MDCK cells [9]; 11.3 or 113 nM): little difference

Compound: CCCCCCCCCCCCCCCC(=O)N[C@H](CN1CCCC1)[C@H](O)c1ccc(C)cc1 [p-methyl-P4]
σ + π [1]: 0.39

IC50 [10]: 0.1 to 1 µM
Compound: COc1cc([C@@H]2c3cc4c(cc3[C@@H](O[C@@H]3O[C@@H]5CO[C@@H](C)O[C@H]5[C@H](O)[C@H]3O)[C@H]3COC(=O)[C@H]23)OCO4)cc(OC)c1O [etoposide]

activity in blocking 1-O-acylceramide synthase [7]: comparable activity
Compound: CCCCCCCCCCCCCCCC(=O)N[C@H](CN1CCCC1)[C@H](O)c1ccccc1 [D-threo-P4]
GlcCer lost from the cells (depletion) (MDCK cells [8]): 27% | Ceramide (pmol/nmol phospholipids) (MDCK cells [8]; 11.3 nM, 24 h): 5.33 ± 0.41 pmol/nmol phospholipids | Diradylglycerol (pmol/nmol phospholipids) (MDCK cells [8]; 11.3 nM, 24 h): 24.1 ± 1.66 pmol/nmol phospholipids | Ceramide (pmol/nmol phospholipids) (MDCK cells [8]; 11.3 nM, 48 h): 5.68 ± 0.27 pmol/nmol phospholipids | Diradylglycerol (pmol/nmol phospholipids) (MDCK cells [8]; 11.3 nM, 48 h): 29.6 ± 0.73 pmol/nmol phospholipids | Ceramide (pmol/nmol phospholipids) (MDCK cells [8]; 113 nM, 24 h): 4.64 ± 0.38 pmol/nmol phospholipids | Diradylglycerol (pmol/nmol phospholipids) (MDCK cells [8]; 113 nM, 24 h): 26.6 ± 1.56 pmol/nmol phospholipids | Ceramide (pmol/nmol phospholipids) (MDCK cells [8]; 113 nM, 48 h): 7.08 ± 0.29 pmol/nmol phospholipids | Diradylglycerol (pmol/nmol phospholipids) (MDCK cells [8]; 113 nM, 48 h): 33.0 ± 2.63 pmol/nmol phospholipids | Ceramide (pmol/nmol phospholipids) (MDCK cells [8]; 1130 nM, 24 h): 5.10 ± 0.35 pmol/nmol phospholipids | Diradylglycerol (pmol/nmol phospholipids) (MDCK cells [8]; 1130 nM, 24 h): 27.1 ± 0.67 pmol/nmol phospholipids | Ceramide (pmol/nmol phospholipids) (MDCK cells [8]; 1130 nM, 48 h): 9.74 ± 0.53 pmol/nmol phospholipids | Diradylglycerol (pmol/nmol phospholipids) (MDCK cells [8]; 1130 nM, 48 h): 38.8 ± 1.11 pmol/nmol phospholipids | σ + π [1]: 0.00
